Data set [1] has as its system Mus musculus. The experiment in a line: Tested for the anticonvulsant activity in DBA/2 mice after 30 mins of intraperitoneal administration. Type of data set: functional. As to conditions: ip, 0.5 h.
Data set [2] can be described thus: Ratio of ED50 values administered intracerebroventricular to that of antagonistic potency (Kb). Type of data set: functional.
Data set [3] has as its target Glutamate NMDA receptor. The experiment in a line: Tested for the binding affinity at glycine recognition site of the NMDA receptor in rat cortical membranes using radiolabeled [3H]- L-689 560. In kind it is cell membranes, Membrane.
The species entered for data set [4] is Rattus norvegicus. Nature of the data set: Tested for the antagonistic potency for blockade of NMDA-induced depolarizations in rat cortical slices. In kind it is functional.
Data set [5] is described as follows: Plasma half-life was tested. Type of data set: ADME, cell-free.
A short description of data set [6]: Partition coefficient (logP). Type of data set: physicochemical. Particulars: octanol/water.
In data set [7] the target is Glutamate NMDA receptor. Nature of the data set: Tested for the binding affinity at glycine recognition site of the NMDA receptor in rat cortical membranes using radiolabeled [3H]-L-689,560 560. In kind it is cell membranes, Membrane.
The subject of data set [8] is Mus musculus. The experiment in a line: Tested for the anticonvulsant activity in DBA/2 mice after 15 mins of intracerebroventricular administration at pH 8.0. In kind it is functional.

Each structure is given as a SMILES string.

`NC(Cc1ccc(CC(=O)N[C@H]2C[C@H](C(=O)O)Nc3cc(Cl)cc(Cl)c32)cc1)C(=O)O` (stereo partly drawn) had an ED50 in data set [1] of 29 mg/kg. In addition, the Ratio in data set [2] is given as 0.6. The molecule further came in with a 50% inhibitory concentration (IC50) in data set [3] of 32 nM. In addition, the antagonist dissociation constant (Kb) in data set [4] is 840 nM.

Molecule `NCc1ccc(CC(=O)N[C@H]2C[C@H](C(=O)O)Nc3cc(Cl)cc(Cl)c32)cc1` gave an ED50 in data set [1] of 39 mg/kg. In data set [2], the Ratio is listed as 15. Besides, in data set [5], the half-life came out at 1.83 h. This molecule yielded a concentration for half-maximal inhibition (IC50) in data set [3] of 19 nM. For the same molecule, the Kb in data set [4] was 240 nM.

Take `O=C(Nc1ccccc1)N[C@H]1C[C@H](C(=O)O)Nc2cc(Cl)cc(Cl)c21`: the ED50 in data set [1] is above 100 mg/kg. For the same molecule, the Kb in data set [4] was 130 nM.

As to `O=C(O)C[C@H]1C[C@H](C(=O)O)Nc2cc(Cl)cc(Cl)c21`, in data set [3], the IC50 amounted to 74 nM.

In turn, `O=C(Cc1ccccc1)N[C@H]1C[C@H](C(=O)O)Nc2cc(Cl)cc(Cl)c21` registered a log partition coefficient (logP) in data set [6] of 0.55. Moreover, the IC50 in data set [7] amounted to 14 nM. The molecule also yielded an ED50 in data set [1] of 46 mg/kg. Further, the Ratio in data set [2] amounted to 9. In addition, the Kb in data set [4] was 530 nM.

Regarding `O=[N+]([O-])c1cc([N+](=O)[O-])c2nc(O)c(O)nc2c1`, in data set [1], the ED50 was above 10 mg/kg. Besides, the Ratio in data set [2] was above 16. The molecule also showed a Kb in data set [4] of 1230 nM.

With `CN(C(=O)Nc1ccccc1)[C@H]1C[C@H](C(=O)O)Nc2cc(Cl)cc(Cl)c21`, the IC50 in data set [3] came to 9 nM.

`O=C(O)c1cc(O)c2c(Cl)cc(Cl)cc2n1` came in with an ED50 in data set [1] above 250 mg/kg.

`COC(=O)[C@H]1C[C@H](NC(=O)Cc2ccc(CN)cc2)c2c(Cl)cc(Cl)cc2N1.Cl` gave an ED50 in data set [1] of 31.5 mg/kg.

Molecule `O=C(C[C@H]1C[C@H](C(=O)O)Nc2cc(Cl)cc(Cl)c21)Nc1ccccc1` returned a concentration for half-maximal inhibition (IC50) in data set [7] of 19 nM.

Regarding `C/C(=C\C(N)C(=O)O)CP(=O)(O)O` (stereo not drawn) [CGP-37849], the results for the ED50 in data set [1] and in data set [8] were 0.8 mg/kg and 0.02 nM, respectively. For the same molecule, the Ratio in data set [2] stood at 0.1. This molecule also gave a Kb in data set [4] of 200 nM.

`C[C@]12N[C@H](Cc3ccccc31)c1ccccc12` [DIZOCILPINE]: the ED50 in data set [1] was 0.2 mg/kg. Besides, the Ratio in data set [2] was 23. The Kb in data set [4] turned out to be 80 nM.

In the case of `O=C(O)c1cc(=O)c2ccccc2[nH]1` [TRANSTORINE], the ED50 in data set [1] was above 250 mg/kg. This molecule had an antagonist dissociation constant (Kb) in data set [4] of 154000 nM.

Source of the values: ChEMBL document CHEMBL1127099, “Anticonvulsant activity of glycine-site NMDA antagonists. 2. trans 2-carboxy-4-substituted tetrahydroquinolines” (Bioorg Med Chem Lett, 1993).
